From ChEMBL document CHEMBL1136281, “Design and synthesis of novel chrysene-linked pyrrolo[2,1-c][1,4]-benzodiazepine hybrids as potential DNA-binding agents” (Bioorg Med Chem Lett, 2003) come the findings set out here.

Each structure is given as a SMILES string. pIC50: −log10 of the molar value.

One experiment has as its system PC-6. Put plainly: In vitro cytotoxicity was evaluated in PC6 cell line. Type of experiment: functional, cell-based. The following applies: Homo sapiens.
A further experiment concerns MCF7. Put plainly: In vitro primary anticancer activity was determined in MCF-7 cell line (breast) at the concentration of […]. Type of experiment: functional, Homo sapiens.
The test system of a further experiment is NCI-H226. Put plainly: Anticancer activity against one non-small cell lung cancer (NCI-H226 cell line). Type of experiment: functional. The conditions noted are these: Homo sapiens, read-out: LC50 (the source's name).
A further experiment concerns NCI-H460. Put plainly: In vitro primary anticancer activity was determined in NCI-H460 cell line (Lung) at the concentration of […]. Type of experiment: functional, Homo sapiens.
The subject of the next experiment is SF-268. Put plainly: In vitro primary anticancer activity was determined in SF-268 cell line (CNS) at the concentration of […]. Type of experiment: functional, Homo sapiens.
Another experiment deals with UACC-62. Put plainly: Anticancer activity against one melanoma cancer (UACC-62 cell line). The experiment is classed as functional. The following applies: Homo sapiens, read-out: LC50 (the source's name).
Another experiment deals with A498. Put plainly: Anticancer activity against one renal cancer (A498 cell line). Type of experiment: functional. The following applies: Homo sapiens, read-out: LC50 (the source's name).

Consider `COc1cc2c(cc1O)N=C[C@@H]1CCCN1C2=O`, for which the negative logarithm of the IC50 (pIC50) in the experiment on PC-6 was 6.48.

Turning to `COc1cc2c(cc1OCCCCC(=O)Nc1cc3c4ccccc4ccc3c3ccccc13)N=C[C@@H]1CCCN1C2=O`, the Growth in the experiment with MCF7 was 1%; in the experiment with NCI-H460 it was 0%; in the experiment on SF-268, 12%. In addition, the CC50 turned out to be 4.5 µM in the experiment with NCI-H226, 4.07 µM with UACC-62 and 6.29 µM with A498.

Consider `COc1cc2c(cc1OCCCC(=O)Nc1cc3c4ccccc4ccc3c3ccccc13)N=C[C@@H]1CCCN1C2=O`, for which the Growth came to 56% with MCF7, 105% in the experiment with NCI-H460 and 121% with SF-268.
